“And” between values parts separate entries of the source, which are not always exact repeats. Identical values can stand only once.
Columns and labels:
[1] = Cell viability assay (MTT), normal cells; assay type: cell-based; details: human, MCF-10A normal mammary gland epithelial cells, four-day incubation
[2] = system: Caspase-3 in MDAMB-231 cancer cell line; assay: Caspase-3 activation assay; assay type: cell-based, human; details: MDAMB-231 cells
Source text: (§1) […]. Supplementary Appendix A provides more information.

[3] = system: Caspase-9 in MDAMB-231 cancer cell line; assay: Caspase-9 activation assay; assay type: cell-based, human; details: MDAMB-231 cells
Protocol: […]. Compound 10o was the least efficient derivative as caspase-9 activators (0.90 ng/mL).
as §1

[4] = system: Bax in MDAMB-231 cancer cell line; assay: Bax level assay; assay type: cell-based, human; details: MDAMB-231 cells
Source text: as §1

[5] = system: Bcl-2 in MDAMB-231 cancer cell line; assay: Bcl-2 level assay; assay type: cell-based, human; details: MDAMB-231 cells
Source text: as §1

prostatic - PC-3 = assay: Antiproliferative assay (MTT) PC-3
breast - MCF-7 = assay: Antiproliferative assay (MTT) MCF-7
colon - HCT-116 = assay: Antiproliferative assay (MTT) HCT-116
- MDAMB-231 = assay: Antiproliferative assay (MTT) MDAMB-231
pancreatic - MDAMB-231 = assay: Antiproliferative assay (MTT) MDAMB-231
[6] = system: four human cancer cell lines (HCT-116, PC-3, MCF-7, MDAMB-231); assay: Antiproliferative assay, mean of four cell lines (GI50); details: Homo sapiens, read-out: GI50 (average IC50)
tubulin = assay: Tubulin polymerization inhibition assay (Cytoskeleton kit); details: for Tub %inh: 30 min, YB-EGY run; for Tub K.Activity: EC = 120, YB-EGY run;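 for all read-outs here: Cell-free tubulin polymerization read by fluorescent reporter enhancement over a 30 min reaction, with the compound-free kit control taken as 100% activity and inhibition relative to it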

In the case of COc1ccc(/C=C/C(=O)c2sc(SCC(=O)Nc3nc(-c4ccc(C)cc4)cs3)nc2C)cc1 [Compound 10o, (E)-2-((5-(3-(4-methoxyphenyl)acryloyl)-4-methylthiazol-2-yl)thio)-N-(4-(p-tolyl)thiazol-2-yl)acetamide], the viability at 96 h, 50 µM [1] is reported as 90%, the “Caspase-3 Conc” value [2] is reported as 605 ± 5 pg/mL and the “Caspase-3 Fold change” value ([2]; relative to untreated control) is reported as 9 fold. The “Caspase-9 Conc” value [3] was 0.90 ng/mL and 0.90 ± 0.10 ng/mL, the “Caspase-9 Fold change” value ([3]; relative to untreated control) was 9 fold and the “Bax Conc” value [4] was 285 pg/mL and 285 ± 7 pg/mL. The “Bax Fold change” value ([4]; relative to untreated control) was 35 fold, the “Bcl-2 Conc” value [5] was 1.05 ng/mL and the “Bcl-2 Fold reduction” value ([5]; relative to untreated control) was 5 fold. For the same compound, the “Average of Relative viability of cells (%)” value (prostatic - PC-3; PC-3, 1.56 µM) was 99.3%, the “Average of Relative viability of cells (%)” value (prostatic - PC-3; PC-3, 3.125 µM) was 87.4% and the “Average of Relative viability of cells (%)” value (prostatic - PC-3; PC-3, 6.25 µM) was 61.1%. The “Average of Relative viability of cells (%)” value (prostatic - PC-3; PC-3, 12.5 µM) was 48.2%, the “Average of Relative viability of cells (%)” value (prostatic - PC-3; PC-3, 25 µM) was 31.6% and the “Average of Relative viability of cells (%)” value (prostatic - PC-3; PC-3, 50 µM) was 23.7%. The “Average of Relative viability of cells (%)” value (prostatic - PC-3; PC-3, 100 µM) was 14.3%, the IC50 (prostatic - PC-3; read-out: Antiproliferative activity IC50 ± SEM (µM) PC-3, PC-3, MTT) was 13 ± 1 µM and the “Average of Relative viability of cells (%)” value (breast - MCF-7; MCF-7, 1.56 µM) was 73.4%. For the same compound, the “Average of Relative viability of cells (%)” value (breast - MCF-7; MCF-7, 3.125 µM) was 61.6%, the “Average of Relative viability of cells (%)” value (breast - MCF-7; MCF-7, 6.25 µM) was 45.1% and the “Average of Relative viability of cells (%)” value (breast - MCF-7; MCF-7, 12.5 µM) was 29.7%. The “Average of Relative viability of cells (%)” value (breast - MCF-7; MCF-7, 25 µM) was 20.3%, the “Average of Relative viability of cells (%)” value (breast - MCF-7; MCF-7, 50 µM) was 11.9% and the “Average of Relative viability of cells (%)” value (breast - MCF-7; MCF-7, 100 µM) was 7.2%. The IC50 (breast - MCF-7; read-out: Antiproliferative activity IC50 ± SEM (µM) MCF-7, MCF-7, MTT) was 5 ± 0.4 µM, the “Average of Relative viability of cells (%)” value (colon - HCT-116; HCT-116, 1.56 µM) was 89.1% and the “Average of Relative viability of cells (%)” value (colon - HCT-116; HCT-116, 3.125 µM) was 66.5%. The “Average of Relative viability of cells (%)” value (colon - HCT-116; HCT-116, 6.25 µM) was 51.6%, the “Average of Relative viability of cells (%)” value (colon - HCT-116; HCT-116, 12.5 µM) was 24.5% and the “Average of Relative viability of cells (%)” value (colon - HCT-116; HCT-116, 25 µM) was 22.7%. The “Average of Relative viability of cells (%)” value (colon - HCT-116; HCT-116, 50 µM) was 15.2%, the “Average of Relative viability of cells (%)” value (colon - HCT-116; HCT-116, 100 µM) was 7.8% and the IC50 (colon - HCT-116; read-out: Antiproliferative activity IC50 ± SEM (µM) HCT-116, HCT-116, MTT) was 6 ± 0.4 µM. The “Average of Relative viability of cells (%)” value (- MDAMB-231; MDAMB-231, 1.56 µM) was 61.2%, the “Average of Relative viability of cells (%)” value (- MDAMB-231; MDAMB-231, 3.125 µM) was 47.1% and the “Average of Relative viability of cells (%)” value (- MDAMB-231; MDAMB-231, 6.25 µM) was 37.3%. The “Average of Relative viability of cells (%)” value (- MDAMB-231; MDAMB-231, 12.5 µM) was 26.7%, the “Average of Relative viability of cells (%)” value (- MDAMB-231; MDAMB-231, 25 µM) was 17.6% and the “Average of Relative viability of cells (%)” value (- MDAMB-231; MDAMB-231, 50 µM) was 10.2%. The “Average of Relative viability of cells (%)” value (- MDAMB-231; MDAMB-231, 100 µM) was 4.5%, the “More potency than sorafenib, MDAMB-231” value (pancreatic - MDAMB-231; MDAMB-231 cancer cell line) was 2.7 fold and the IC50 (pancreatic - MDAMB-231; read-out: Antiproliferative activity IC50 ± SEM (µM) MDAMB-231, MDAMB-231, MTT) was 3 ± 0.1 µM. The IC50 [6] was 7 µM, the Tub %inh (tubulin; conc 0.1 (unit not given)) was 16% and the “Tub K.Activity” value (tubulin; conc 0.1 (unit not given)) was 100.77. For the same compound, the Tub %inh (tubulin; conc 1 (unit not given)) was 34%, the “Tub K.Activity” value (tubulin; conc 1 (unit not given)) was 79.173 and the Tub %inh (tubulin; conc 10 (unit not given)) was 54.8%. The “Tub K.Activity” value (tubulin; conc 10 (unit not given)) was 54.254, the Tub %inh (tubulin; conc 50 (unit not given)) was 76.2% and the “Tub K.Activity” value (tubulin; conc 50 (unit not given)) was 28.504. The Tub %inh (tubulin; conc 100 (unit not given)) was 90.9%, the “Tub K.Activity” value (tubulin; conc 100 (unit not given)) was 10.964 and the IC50 (tubulin; read-out: Tubulin inhibition IC50 ± SEM, triplicate for each tested concentration) was 3.62 ± 0.11 µM.

— article PMC12040969, “Design, synthesis, in silico studies, and apoptotic antiproliferative activity of novel thiazole-2-acetamide derivatives as tubulin polymerization inhibitors” (Frontiers in Chemistry, 2025)
